{"source": "patent US6458773B1", "about": "“Nucleoside with anti-hepatitis B virus activity” (Emory University, priority 1998, dated 2002)", "key": {"HBV": {"system": "HBV", "assay": "Anti-HBV activity in transfected 2.2.15 cells (HBV DNA replication intermediates, blot hybridization)", "format": "cell-based, hepatitis B virus", "details": "read-out: EC50 (μM) R.I.", "protocol": "The antiviral evaluations were performed on two separate passages of cells, two cultures per passage (4 cultures total). All wells, in all plates, were seeded at the same density and at the same time.\nDue to the inherent variations in the levels of both intracellular and extracellular HBV DNA, only depressions greater than 3.0-fold (for HBV virion DNA) or 2.5-fold (for HBV DNA replication intermediates) from the average levels for these HBV DNA forms in untreated cells are generally considered to be statistically significant [P<0.05] (Korba and Gerin, Antiviral Res. 19: 55-70, 1992). The levels of integrated HBV DNA in each cellular DNA preparation (which remain constant on a per cell basis in these experiments) were used to calculate the levels of intracellular HBV DNA forms, thereby eliminating technical variations inherent in the blot hybridization assays.\nTypical values for extracellular HBV virion DNA in untreated cells range from 50 to 150 pg/ml culture medium (average of approximately 76 pg/ml). Intracellular HBV DNA replication intermediates in untreated cells range from 50 to 100 pg/ug cell DNA (average approximately 74 pg/ug cell DNA). In general, depressions in the levels of intracellular HBV DNA due to treatment with antiviral compounds are less pronounced, and occur more slowly, than depressions in the levels of HBV virion DNA.\nFor reference, the manner in which the hybridization analyses were performed for these experiments results in an equivalence of approximately 1.0 pg intracellular HBV DNA/ug cellular DNA to 2-3 genomic copies per cell and 1.0 pg of extracellular HBV DNA/ml culture medium to 3×10^5 viral particles/ml.\nThe test compounds were used in the form of stock solutions in DMSO (frozen on dry ice). Daily aliquots of the test samples were made and frozen at −20° C. so that each individual aliquot would be subjected to a single freeze-thaw cycle. The daily test aliquots were thawed, suspended into culture medium at room temperature and immediately added to the cell cultures.\nThe ability of the active compounds to inhibit the growth of virus in 2.2.15 cell cultures (HepG2 cells transformed with hepatitis virion) was evaluated."}, "Normal Hep G2 cells [1]": {"system": "Normal Hep G2 cells", "assay": "Cytotoxicity by uptake of neutral red dye", "format": "cell-based", "protocol": "(§1) Toxicity analyses were performed in order to assess whether any observed antiviral effects were due to a general effect on cell viability. This can be assessed by the uptake of neutral red dye, a standard and widely used assay for cell viability in a variety of virus-host systems, including HSV (herpes simplex virus) and HIV.\n(§2) Toxicity analyses were performed in 96-well flat bottomed tissue culture plates. Cells for the toxicity analyses were cultured and treated with test compounds with the same schedule as used for the antiviral evaluations. Each compound was tested at 4 concentrations, each in triplicate cultures. Uptake of neutral red dye was used to determine the relative level of toxicity. The absorbance of internalized dye at […] (A510) was used for the quantitative analysis. Values are presented as a percentage of the average A510 values (±standard deviations) in 9 separate cultures of untreated cells maintained on the same 96-well plate as the test compounds."}, "CFU-GM": {"system": "CFU-GM", "assay": "Human bone marrow clonogenic assay, CFU-GM", "format": "cell-based", "details": "effect on cell growth"}, "BFU-E": {"system": "BFU-E", "assay": "Human bone marrow clonogenic assay, BFU-E", "format": "cell-based", "details": "effect on cell growth"}, "Normal Hep G2 cells [2]": {"system": "Normal Hep G2 cells", "details": "neutral red dye uptake; typically observed in these assays (Korba and Gerin 1992); cited from earlier work"}, "[3]": {"assay": "Cytotoxicity by uptake of neutral red dye", "format": "cell-based", "details": "human, Normal Hep G2 cells", "protocol": "as §1, §2"}, "[4]": {"details": "Transfected 2.2.15 cells, HBV DNA replication intermediates (R.I.)"}}, "note": "Like-named read-outs stand apart in the source and are kept apart here."}
{"molecule": "Nc1ccn([C@@H]2CS[C@H](CO)O2)c(=O)n1", "note": "(single isomer, unassigned) [Lamivudine (3TC), (−)-enantiomer of cis-2-hydroxymethyl-5-(cytosin-1-yl)-1,3-oxathiolane]", "values": [{"measurement": "EC50", "setting": "HBV; [4]", "value": 0.03, "unit": "µM"}]}
{"molecule": "Nc1nc(=O)n([C@H]2CC[C@@H](CO)O2)cc1F", "note": "[Compound L-5-FddC]", "values": [{"measurement": "EC50", "setting": "HBV; [4]", "value": 0.05, "unit": "µM"}, {"measurement": "CC50", "setting": "Normal Hep G2 cells [1]", "value": "> 200000", "unit": "nM"}, {"measurement": "EC50", "setting": "CFU-GM", "value": 1200, "unit": "nM"}, {"measurement": "EC50", "setting": "BFU-E", "value": 1800, "unit": "nM"}]}
{"molecule": "Nc1ccn([C@H]2CC[C@@H](CO)O2)c(=O)n1", "note": "[D-ddC, 2′,3′-dideoxycytidine]", "values": [{"measurement": "EC50", "setting": "CFU-GM", "value": 700, "unit": "nM"}, {"measurement": "EC50", "setting": "BFU-E", "value": 50, "unit": "nM"}, {"measurement": "concentration giving a 2-fold reduction in dye uptake versus untreated cultures", "setting": "Normal Hep G2 cells [2]", "value": "150 to 190", "unit": "µM"}]}
{"molecule": "[N-]=[N+]=N[C@H]1C[C@H](CO)O[C@@H]1n1cc(F)c(N)nc1=O", "note": "[L-2-azido-5-FddC, 1-(2,3-Dideoxy-2-azido-β-L-erythro-pentofuranosyl)-5-fluorocytosine]", "values": [{"measurement": "EC50", "setting": "HBV; Hepatitis B virus", "value": 0.1, "unit": "µM"}, {"measurement": "CC50", "setting": "[3]", "value": "> 200000", "unit": "nM"}, {"measurement": "EC50", "setting": "CFU-GM", "value": "> 10000", "unit": "nM"}, {"measurement": "EC50", "setting": "BFU-E", "value": "> 10000", "unit": "nM"}]}
{"molecule": "[N-]=[N+]=NC1C[C@@H](n2cc(F)c(N)nc2=O)O[C@H]1CO", "note": "(stereo partly drawn) [L-3-azido-5-FddC, β-L-(3′-azido)-2′,3′-dideoxy-5-fluorocytidine]", "values": [{"measurement": "EC50", "setting": "HBV; Hepatitis B virus, Transfected 2.2.15 cells, HBV DNA replication intermediates (R.I.)", "value": 0.01, "unit": "µM"}, {"measurement": "CC50", "setting": "[3]", "value": "> 200000", "unit": "nM"}, {"measurement": "EC50", "setting": "CFU-GM", "value": 10000, "unit": "nM"}, {"measurement": "EC50", "setting": "BFU-E", "value": 10000, "unit": "nM"}]}
{"molecule": "Cc1cn([C@H]2C[C@H](N=[N+]=[N-])[C@@H](CO)O2)c(=O)[nH]c1=O", "note": "[Zidovudine (AZT), 3′-azido-3′-deoxythymidine]", "values": [{"measurement": "EC50", "setting": "CFU-GM", "value": 1900, "unit": "nM"}, {"measurement": "EC50", "setting": "BFU-E", "value": 600, "unit": "nM"}]}
